Consider 21 compounds from patent US20220363649A1, “ORGANIC COMPOUNDS” (Rutgers, The State University of New Jersey, priority 2018, published 2022).

SMILES strings stand for the structures. Where two headings read alike, the source gives them in different places.

Usually Ki stands for a dissociation constant, usually derived from enzyme kinetics or from competition with a known ligand.

One assay concerns the target T1, human S1R (Homo sapiens, UniProt Q99720).
T1 construct: experimentally determined in human jurkat cell membranes using 15.0 nM; endogenous in cells; host or cells: human Jurkat cell membranes
Nature of the assay: Human S1R radiolabeled binding assay, human jurkat cell membranes, [3H]-pentazocine. The following applies: human membranes (Compounds 10-76). On the procedure:
The binding process was terminated by addition of cold buffer. Then, the mixture was filtered and washed with cold buffer. Radioactivity was identified using the TopCount NTX liquid scintillation counter (PerkinElmer, Waltham, Mass.).
(§1) Radiolabeled binding assays were conducted using two different species.

The target of another assay is T2, human S2R (Homo sapiens, UniProt Q5BJF2).
T2 construct: performed using Jurkat cell line Clone E6-1 cells with 0.025 μM; endogenous in cells; host or cells: Jurkat Clone E6-1 cell membranes
Nature of the assay: Human S2R radiolabeled binding assay, Jurkat Clone E6-1 cell membranes, [3H] DTG. Conditions: for Ki: human membranes (Compounds 10-76); for S2R % at 1 μM: human membranes. The procedure:
The radiolabeled binding assay of the human S1R and S2R were performed using human jurkat cell membranes according to the protocol previously reported (Ganapathy, et al., 1999, J. Pharmacol. Exp. Ther. 289:251-60).
DTG as radioligand. […] The cells were incubated in RPMI 1640 Medium with 10% FBS, 100 U/ml penicillin and […] streptomycin. After incubation, the cells were suspended in 5 mM potassium phosphate buffer (pH=7.6). The membrane protein concentration was controlled at 5 mg/mL. The collected membrane protein was incubated with ligands in potassium phosphate buffer for 1 hour at room temperature and terminated by adding ice-cold buffer. Then the mixture is filtered with 0.7 μm syringe filter and washed three times. The radioactivity is determined by liquid scintillation spectrometry.
Radiolabeled binding assays were conducted using two different species. Compounds 1-9 were assayed using guinea pig brain membranes for the binding assays. Compounds 10-76 were assayed using human brain membranes for the binding assays.

The target of a further assay is T3, S1R (Cavia porcellus, UniProt Q60492).
T3 construct: performed using Guinea pig whole brain according to the protocol previously reported; from tissue; host or cells: guinea pig whole brain membrane preparations
Nature of the assay: S1R radiolabeled binding assay, guinea pig whole brain, [3H]-pentazocine. On the procedure:
Following 1 h incubation at 25° C., the binding assay was terminated by addition of cold buffer. The mixture was then filtered through Whatman GF/B filters and washed with cold buffer. Radioactivity was identified using the liquid scintillation counter.
Receptor binding data were analyzed by nonlinear regression of saturation and competition curves using the GraphPad Prism 7.0 software (GraphPad Software, La Jolla, Calif.).
as §1

Setting [1] is: guinea pig brain membranes (Compounds 1-9), read-out: S1R Ki.

T3 sequence (Q60492 whole entry): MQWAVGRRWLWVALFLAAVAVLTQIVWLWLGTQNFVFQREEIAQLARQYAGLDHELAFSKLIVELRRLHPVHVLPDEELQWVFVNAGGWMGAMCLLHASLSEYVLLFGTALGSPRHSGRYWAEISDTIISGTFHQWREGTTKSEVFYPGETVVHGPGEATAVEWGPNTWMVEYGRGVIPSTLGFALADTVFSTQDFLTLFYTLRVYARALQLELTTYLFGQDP
T2 sequence (Q5BJF2 whole entry): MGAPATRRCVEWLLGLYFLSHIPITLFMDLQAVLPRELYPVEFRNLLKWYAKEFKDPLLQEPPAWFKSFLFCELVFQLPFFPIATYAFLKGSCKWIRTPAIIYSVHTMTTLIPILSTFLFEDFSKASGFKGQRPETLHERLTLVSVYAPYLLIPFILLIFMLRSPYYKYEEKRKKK
T1 sequence (Q99720 whole entry): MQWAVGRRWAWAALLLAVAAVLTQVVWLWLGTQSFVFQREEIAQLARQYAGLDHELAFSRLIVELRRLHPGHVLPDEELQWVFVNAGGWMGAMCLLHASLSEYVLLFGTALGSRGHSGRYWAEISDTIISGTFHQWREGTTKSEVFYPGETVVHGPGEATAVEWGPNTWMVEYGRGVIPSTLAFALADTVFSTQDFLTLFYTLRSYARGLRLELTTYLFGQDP

`CC(C)n1nc(CN2CCCC2)nc1-c1ccc(C(C)(C)C)cc1` [Compound 31, 5-(4-(tert-butyl)phenyl)-1-isopropyl-3-(pyrrolidin-1-ylmethyl)-1H-1,2,4-triazole]: the results for the Ki at human S1R and on human S2R were 2.16 nM and 1460 nM, respectively.
Taken in the same sequence, the figures for `Cn1nc(CN2CCCC2)nc1-c1cccc(C2(C(F)(F)F)CC2)c1` [Compound 17, 1-methyl-3-(pyrrolidin-1-ylmethyl)-5-(3-(1-(trifluoromethyl)cyclopropyl)phenyl)-1H-1,2,4-triazole] were 32.3 nM and over 1000 nM.
In turn, `CCn1nc(CN2CC3CCCC3C2)nc1-c1ccc(C(C)(C)C)cc1` (stereo not shown) [Compound 66, 2-((5-(4-(tert-butyl)pheny)-1-ethyl-1H-1,2,4-triazol-3-yl)methyl)octahydrocyclopenta[c]pyrrole] registered a Ki at human S1R of 0.57 nM. Also, the “S2R % at 1 μM” value at human S2R was 73% at 1 μM.
For `Cn1nc(CN2CCCCC2)nc1-c1ccc(C(C)(C)C)cc1` [Compound 1, 1-((5-(4-(tert-butyl)phenyl)-1-methyl-1H-1,2,4-triazol-3-yl)methyl)piperidine], on S1R (setting [1]), the Ki was determined as 3.72 nM.
`Cn1nc(CN2CCCC2)nc1-c1ccc(C2(C(F)(F)F)CC2)cc1` [Compound 10, 1-methyl-3-(pyrrolidin-1-ylmethyl)-5-(4-(1-(trifluoromethyl)cyclopropyl)phenyl)-1H-1,2,4-triazole]: the Ki at human S1R was 9.9 nM; at human S2R, over 1000 nM.
As to `CN1CCN(Cc2nc(-c3ccc(C(C)(C)C)cc3)n(C)n2)CC1` [Compound 3, 1-((5-(4-(tert-butyl)phenyl)-1-methyl-1H-1,2,4-triazol-3-yl)methyl)-4-methylpiperazine], the Ki on S1R (setting [1]) came out at 131 nM.
As for `Cc1cc(-c2nc(CN3CCCC3)nn2C)ccc1C(F)(F)F` [Compound 13, 1-methyl-5-(3-methyl-4-(trifluoromethyl)phenyl)-3-(pyrrolidin-1-ylmethyl)-1H-1,2,4-triazole], the figures for the Ki at human S1R and on human S2R were 20.8 nM and over 1000 nM, respectively.
As to `Cn1nc(CN2CCCC2)nc1-c1ccc(Cl)c(Cl)c1` [Compound 11, 5-(3,4-dichlorophenyl)-1-methyl-3-(pyrrolidin-1-ylmethyl)-1H-1,2,4-triazole], the Ki at human S1R was 22.1 nM; on human S2R, over 1000 nM.
In the case of `CCn1nc(CN2CCC3(CCCC3)C2)nc1-c1ccc(C(C)(C)C)cc1` [Compound 65, 2-((5-(4-(tert-butyl)phenyl)-1-ethyl-1H-1,2,4-triazol-3-yl)methyl)-2-azaspiro[4.4]nonane], the affinity at human S1R corresponds to a Ki of 0.52 nM. Besides, the “S2R % at 1 μM” value at human S2R is 96% at 1 μM.
For `Cn1nc(CN2CCC(Cc3ccccc3)CC2)nc1-c1ccc(C(C)(C)C)cc1` [Compound 7, 4-benzyl-1-((5-(4-(tert-butyl)phenyl)-1-methyl-1H-1,2,4-triazol-3-yl)methyl)piperidine], the Ki on S1R (setting [1]) is 2.02 nM.
Still for that read-out and setting: as for `Cn1nc(CN2CCOCC2)nc1-c1ccc(C(C)(C)C)cc1` [Compound 2, 4-((5-(4-(tert-butyl)phenyl)-1-methyl-1H-1,2,4-triazol-3-yl)methyl)morpholine], the figure is 56 nM; as for `Cn1nc(CN2CCN(Cc3ccccc3)CC2)nc1-c1ccc(C(C)(C)C)cc1` [Compound 6, 1-benzyl-4-((5-(4-(tert-butyl)phenyl)-1-methyl-1H-1,2,4-triazol-3-yl)methyl)piperazine], 5.52 nM.
Take `CN(Cc1nc(-c2ccc(C(C)(C)C)cc2)n(C)n1)CC1CC1` [Compound 9, 1-(5-(4-(tert-butyl)phenyl)-1-methyl-1H-1,2,4-triazol-3-yl)-N-(cyclopropylmethyl)-N-methylmethanamine]: on S1R (setting [1]), the Ki is 0.61 nM.
For `Cn1nc(CN2CCCC2)nc1-c1ccc2c(c1)CCCC2` [Compound 15, 1-methyl-3-(pyrrolidin-1-ylmethyl)-5-(5,6,7,8-tetrahydronaphthalen-2-yl)-1H-1,2,4-triazole], the results for the Ki on human S1R and at human S2R were 35.7 nM and over 1000 nM, respectively.
As for `Cn1nc(CN2CCCC2)nc1-c1ccc2cc(Cl)sc2c1` [Compound 25, 5-(2-chlorobenzo[b]thiophen-6-yl)-1-methyl-3-(pyrrolidin-1-ylmethyl)-1H-1,2,4-triazole], the Ki at human S1R is 37 nM; on human S2R it was over 1000 nM.
`Cn1nc(CN2CCN(c3ccccc3)CC2)nc1-c1ccc(C(C)(C)C)cc1` [Compound 4, 1-((5-(4-(tert-butyl)phenyl)-1-methyl-1H-1,2,4-triazol-3-yl)methyl)-4-phenylpiperazine] showed a Ki at S1R of 14.3 nM.
`Cn1nc(CN2CCN(CCc3ccccc3)CC2)nc1-c1ccc(C(C)(C)C)cc1` [Compound 5, 1-((5-(4-(tert-butyl)phenyl)-1-methyl-1H-1,2,4-triazol-3-yl)methyl)-4-phenethylpiperazine] yielded a Ki on S1R of 10.2 nM.
Consider `CCn1nc(CN2CCCC2)nc1-c1ccc(C(C)(C)C)cc1` [Compound 30, 5-(4-(tert-butyl)phenyl)-1-ethyl-3-(pyrrolidin-1-ylmethyl)-1H-1,2,4-triazole], for which the Ki is 4.8 nM on human S1R and 1710 nM on human S2R.
For `CC(C)(C)c1ccc(-c2nc(CN3CCCC3)nn2C2CC2)cc1` [Compound 32, 5-(4-(tert-butyl)phenyl)-1-cyclopropyl-3-(pyrrolidin-1-ylmethyl)-1H-1,2,4-triazole], the Ki on human S1R is 13.9 nM; at human S2R, 750 nM.
For the compound `Cn1nc(CN2CCC(C)(C)C2)nc1-c1ccc(C(C)(C)C)cc1` [Compound 26, 5-(4-(tert-butyl)phenyl)-3-((3,3-dimethylpyrrolidin-1-yl)methyl)-1-methyl-1H-1,2,4-triazole], the Ki on human S1R stood at 0.89 nM; on human S2R, 190 nM.
`CC(C)(C)c1ccc(-c2nc(CN3CCC4(CCCC4)C3)nn2C2CC2)cc1` [Compound 75, 2-((5-(4-(tert-butyl)phenyl)-1-cyclopropyl-1H-1,2,4-triazol-3-yl)methyl)-2-azaspiro[4.4]nonane] registered a Ki on human S1R of 0.56 nM. For the same compound, the “S2R % at 1 μM” value on human S2R is on record as 105% at 1 μM.
